In paper PMC11178545, “Alkynyl nicotinamides show antileukemic activity in drug-resistant acute myeloid leukemia” (The Journal of Clinical Investigation, 2024):
Where “and” joins values, the source holds several entries; their conditions need not be identical. Identical values can stand only once.

Experiments:
[1] = system: Tet2-/-:Flt3ITD/ITD leukemic cells; experiment: Tet2-/-:Flt3ITD/ITD AML transplant mouse model; assay type: in vivo, mice; parameters: Neutrophils / Monocytes / WBC / Spleen weight / Spleen normal and leukemic cells, CD45.1+ / Spleen normal and leukemic cells, CD45.1- / BM Erythroid, Ter119+ / BM Erythroid, Ter119+CD71+ / BM Myeloid blasts, CD11b-Kit+ / BM Myeloid blasts, CD11b+Kit+ / BM Myeloid cells, CD11b+GR1- / BM Myeloid cells, CD11b+GR1+ / BM - Lin Neg / BM - LSK: unit not given here
Protocol: This model system specifically tracks the progression of both normal cells and leukemic cells utilizing flow cytometry to detect the presence of cell surface antigens CD45.1 or CD45.2, which are uniquely expressed only on either WT or mutant cells, respectively. […] Anemia is frequently observed in patients with AML.
6 weeks after transplant peripheral blood engraftment was analyzed. […] (A) WBC, neutrophil,and monocyte counts. […] (E) The representative flow profiles of Lin^– Sca1^+Kit^+ (LSK) cells.
Bone marrow and spleen single-cell suspension was prepared for flow cytometry analysis as described earlier ([46], [56]). Flow cytometric analysis was performed on a multiparameter analyzer 5 laser LSRII with Diva software (BD Biosciences) and the data were analyzed using FlowJo software. […]. Detailed information related to docking calculation, molecular dynamics simulations, proteomics sample preparation, and mass spectrometry and their analyses are described in Supplemental Methods.

ABL1 phosphorylated = biological target: T1, ABL1 phosphorylated (Homo sapiens, UniProt P00519); experiment: KINOMEScan binding assay, phosphorylated ABL1
T1 construct: purchased DiscoverX (DiscoveRx) KINOMEScan
Protocol: In vitro inhibition of phosphorylated ABL1 is often used as a surrogate to determine if a kinase inhibitor is Type I or Type II without the need for crystal structures ([18]). […] In this regard, we performed binding assays using the KINOMEScan platform (DiscoveRx) and commercially available FLT3 mutants; the Kd for most of the tested proteins was in the sub-to-low nanomolar range with the exception of FLT3^ITD–D835Y (Table 2).
In vitro kinase assays were performed at DiscoverX. Briefly, compounds that bind the kinase active site prevent kinase binding to an immobilized ligand and will reduce the amount of kinase captured on solid support. […] Kinases used in the panel are tagged with DNA barcodes. Screening “hits” are identified by measuring the amount of kinase still bound to the immobilized ligand after compound treatment by using a quantitative, precise, and ultra-sensitive qPCR method that detects the associated DNA label. In a similar manner, KDs for test compound–kinase interactions were calculated by measuring the amount of kinase captured on the solid support as a function of the test compound concentration. Residence time determination assays were conducted by Enzymlogic.

[2] = system: MOLM14 FLT3ITD-D835Y cell line; experiment: AML cell line inhibition, WST-1 (SAR); assay type: cell-based, human; details: Homo sapiens, MOLM-14; MOLM14 FLT3ITD-D835Y cell line
Protocol: MOLM14 and MV411 cells were purchased from ATCC. […] MV411-luc cells were a gift from Sharyn Baker (The Ohio State University College of Pharmacy, Columbus, Ohio, USA). All cells were grown in RPMI supplemented with 10% FBS. One day prior to drug addition, 5 × 10^3 cells/well were plated in a 96-well plate. The next morning, HSN748 was serially diluted in DMSO, added to RPMI media and then added to cells. The assay was terminated 72 hours later with water soluble tertrazolium (WST-1; Clontech) and plates were read after an additional 4-hour incubation at 37°C using BioTeK HT plate reader (BioTek). Data were analyzed and graphed using GraphPad Prism Software (GraphPad). IC50s were calculated on GraphPad.

MV411 cells = experiment: MV411 proliferation, colorimetric assay (Supplementary Figure 3B); assay type: cell-based, human; details: for Supplementary Figure 3B - MV411 proliferation: replicates
[3] = system: MV411 cells bearing FLT3ITD; experiment: Washout Western blot (pFLT3, pSTAT5, pERK); assay type: cell-based, human; details: 1 hour treatment, recovery 0, 1, 2, 20 hours, in words
Protocol: (B) Distance distribution plots using MD simulations. […] Data presented were pooled from 3 independent experiments. […] This was followed by Western blotting.
Whole cell lysates were prepared in RIPA buffer with protease and phosphatase inhibitors.

[4] = system: BaF3 cells expressing FLT3ITD; experiment: BaF3 proliferation, colorimetric WST-1 assay; assay type: cell-based, murine; details: Mus musculus, BaF3, read-out: IC50, growth inhibition
[5] = system: AML patient cells (hCD45)
Protocol: Weekly presence of peripheral blood human CD45 (hCD45 positivity) and murine CD45 (mCD45 positivity) cells was assessed to monitor the effect of treatment. […] At different time points, peripheral blood human CD45 frequency was assessed and followed up for 196 days for survival.
Data from Panel A–G originated from the first sample from a patient with AML and Panels H-J from different patient sample. (A) Experimental design. […] After treatment, mice were euthanized and assessed for hCD45 percentage in peripheral blood, spleen,and bone marrow. […] X-axis showing hCD45-positive cells and y-axis showing mCD45-positive cells. (F) Quantification data on the frequency of hCD45 cells in the bone marrow in mice treated with various drugs. […] (J) Representative flow profiles of leukemic stem and progenitors (K) quantification data on the frequency of human leukemic stem and progenitors under drug treatment. Data represent median with interquartile range by ordinary 1-way ANOVA analysis.

[6] = system: BaF3 cells expressing FLT3ITD-D835Y; experiment: BaF3 proliferation, colorimetric WST-1 assay; details: Mus musculus, BaF3, read-out: IC50, growth inhibition
[7] = 20 mg/kg oral 5 times a week for 6 weeks, in words
[8] = Figure 6B, spleen, individual mice
[9] = Figure 6C, bone marrow, individual mice
[10] = Figure 6D, bone marrow, individual mice
[11] = Figure 6F, bone marrow, individual mice
[12] = Post, 20 mg/kg oral 5 times a week for 6 weeks, individual mice, 20 mg/kg
[13] = Pre (before treatment), HSN748 group, individual mice
[14] = orally 5 days a week at 20 mg/kg, NSGS mice

T1 sequence (P00519 whole entry): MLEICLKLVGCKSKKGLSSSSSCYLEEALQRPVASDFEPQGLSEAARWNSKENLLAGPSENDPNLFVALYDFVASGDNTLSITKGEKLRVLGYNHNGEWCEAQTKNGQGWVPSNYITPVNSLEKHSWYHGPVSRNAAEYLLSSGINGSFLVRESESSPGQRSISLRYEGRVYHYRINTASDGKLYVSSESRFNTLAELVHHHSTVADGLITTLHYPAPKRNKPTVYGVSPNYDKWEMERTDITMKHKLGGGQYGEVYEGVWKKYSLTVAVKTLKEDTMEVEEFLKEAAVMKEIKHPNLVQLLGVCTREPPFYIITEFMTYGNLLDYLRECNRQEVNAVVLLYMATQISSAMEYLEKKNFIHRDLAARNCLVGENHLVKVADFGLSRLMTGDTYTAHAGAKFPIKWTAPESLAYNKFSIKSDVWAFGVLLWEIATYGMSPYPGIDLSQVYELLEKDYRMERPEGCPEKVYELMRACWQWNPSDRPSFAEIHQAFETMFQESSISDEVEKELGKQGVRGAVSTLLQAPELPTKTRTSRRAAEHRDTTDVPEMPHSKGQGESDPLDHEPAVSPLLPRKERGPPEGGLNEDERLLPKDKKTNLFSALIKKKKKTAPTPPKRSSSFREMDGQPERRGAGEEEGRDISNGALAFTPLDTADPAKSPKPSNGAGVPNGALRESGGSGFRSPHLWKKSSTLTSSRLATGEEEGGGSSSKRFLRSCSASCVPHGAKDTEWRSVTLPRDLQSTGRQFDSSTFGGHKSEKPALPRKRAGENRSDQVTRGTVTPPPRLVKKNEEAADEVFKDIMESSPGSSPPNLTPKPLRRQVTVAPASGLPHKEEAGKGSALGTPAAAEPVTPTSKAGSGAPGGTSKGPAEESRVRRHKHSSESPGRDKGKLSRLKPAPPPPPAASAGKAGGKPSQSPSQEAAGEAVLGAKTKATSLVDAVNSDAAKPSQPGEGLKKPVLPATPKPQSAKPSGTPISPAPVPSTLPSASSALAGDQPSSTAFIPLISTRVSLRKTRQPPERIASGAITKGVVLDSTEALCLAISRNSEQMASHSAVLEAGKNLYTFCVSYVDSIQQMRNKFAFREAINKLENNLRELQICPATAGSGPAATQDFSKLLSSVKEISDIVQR

CN1CCN(Cc2ccc(NC(=O)c3cncc(C#Cc4cnc5cccnn45)c3)cc2C(F)(F)F)CC1 [HSN748] was tested, and the peripheral leukemic burden [1, 7] was “significantly reduced”, the splenomegaly [1, 7] was “significant normalization” and the Spleen weight ([1]; Figure 6B, individual mice) was 0.17 and 0.107 and 0.196 and 0.122 and 0.158 and 0.187. The “Spleen normal and leukemic cells, CD45.1+” value [1, 8] was 58.2 and 70.6 and 58.1 and 84 and 81.3 and 63.8, the “Spleen normal and leukemic cells, CD45.1-” value [1, 8] was 41.2 and 29 and 41.5 and 15.6 and 18.4 and 35.8 and the “BM Erythroid, Ter119+” value [1, 9] was 12.7 and 19.2 and 8.97 and 29.5 and 15.2 and 22.8. For the same compound, the “BM Erythroid, Ter119+CD71+” value [1, 9] was 9.67 and 15.8 and 6.8 and 24 and 12.2 and 18.5, the “BM Myeloid blasts, CD11b+Kit+” value [1, 10] was 3.96 and 3.4 and 3.6 and 3.84 and 4.83 and 3.69 and the “BM Myeloid blasts, CD11b-Kit+” value [1, 10] was 9.42 and 9.71 and 11 and 7.16 and 8.59 and 8.54. For the same compound, the “BM Myeloid cells, CD11b+GR1+” value [1, 10] was 52.1 and 55.3 and 49.9 and 65.2 and 67.7 and 57.1, the “BM Myeloid cells, CD11b+GR1-” value [1, 10] was 2.94 and 2.85 (2×) and 3.71 and 4.38 and 4.33 and the “BM - LSK” value [1, 11] was 2.74 and 1.81 and 11.5 and 3.91 and 10.5 and 1.43. For the same compound, the “BM - Lin Neg” value [1, 11] was 6.65 and 9.27 and 4.18 and 6.14 and 7.06 and 6.48, the “Lin Neg KIT Pos” value [1, 11] was 3.67 and 3.1 and 1.76 and 3.13 and 2.86 and 2.62 and the Monocytes [1, 12] was 13.39 and 2.54 and 6.28 and 2.17 and 2.79 and 6.07. For the same compound, the Neutrophils [1, 12] was 7.62 and 5.15 and 6.28 and 3.6 and 4.15 and 6.27, the WBC [1, 12] was 25.37 and 19.42 and 18.75 and 18.55 and 18.5 and 17.06 and the Monocytes [1, 13] was 11.55 and 6.85 and 8.38 and 2.75 and 6.53 and 18.62. The Neutrophils [1, 13] was 11.4 and 5.22 and 11.19 and 3.45 and 7.58 and 11.64, the WBC [1, 13] was 32.57 and 21.58 and 32.09 and 24.02 and 28.92 and 35.7 and the Kd (ABL1 phosphorylated; read-out: Kd, phosphorylated (active) ABL) was 0.74 nM. For the same compound, the Hill slope (ABL1 phosphorylated; variable slope best fit) was −1.298, the IC50 [2] was 5 nM and the “sensitivity of MV411 cell line” value (MV411 cells; FLT3ITD-positive, in words) was “extremely sensitive”. The “Supplementary Figure 3B - MV411 proliferation” value (“Supplementary Figure 3B” below) (MV411 cells; x value 0 (log concentration, unit not given)) was 1.522 and 1.096 and 2.826, the “Supplementary Figure 3B” value (MV411 cells; x value 0.69897 (log concentration, unit not given)) was 0.4982 and 0.3164 and 2.367 and the “Supplementary Figure 3B” value (MV411 cells; x value 1.39794 (log concentration, unit not given)) was 0.7646 and -0.00229 and 2.302. The “Supplementary Figure 3B” value (MV411 cells; x value 2.39794 (log concentration, unit not given)) was 1.963 and -0.3852 and 1.561, the “Supplementary Figure 3B” value (MV411 cells; x value -0.69897 (log concentration, unit not given)) was 14.6282 and 14.8505 and 16.2766 and the “Supplementary Figure 3B” value (MV411 cells; x value -1.39794 (log concentration, unit not given)) was 60.5255 and 61.5411 and 19.2543. For the same compound, the “Supplementary Figure 3B” value (MV411 cells; x value -2.09691 (log concentration, unit not given)) was 71.8689 and 80.3842 and 73.0068, the “Supplementary Figure 3B” value (MV411 cells; x value -2.5 (log concentration, unit not given)) was 100 and the “pFLT3, pSTAT5, pERK after drug washout” value [3] was “profound and prolonged target inhibition”. For the same compound, the IC50 [4] was 0.04 nM, the “follow up without moribund conditions or mortality” value ([5]; PDX, 20 mg/kg orally, study terminated) was no less than 128 days and the body weight [5, 14] was “not affected”. The tolerability of dose [5, 14] was “well tolerated”, the “mCD45+ cells in bone marrow” value ([5]; representative flow profile, Figure 7E) was 49.9% and the IC50 [6] was 6.62 nM.
